The source of these data is paper PMC5490157 (DARU Journal of Pharmaceutical Sciences, 2017).

The nature of data set [1]: Isolated perfused rat liver, single-pass perfusion with MRZ-containing Krebs-Henselit buffer, control vs MDMA-pretreated rats; perfusate analysed by HPLC. Conditions: for Mean outlet perfusate concentration at four latest samples / Metabolic ratio (metabolite concentration divided by MRZ concentration) at four latest sampling time intervals: mean ± SD; for Decrease in metabolite concentration, treatment vs control: four latest samples; for Decrease in metabolic ratio, treatment vs control: four latest sampling time intervals; for CLh (hepatic clearance) / CLint (intrinsic clearance): ±SD; for AUC(0-t) at 1 μg/ml: rat, isolated perfused rat liver (single-pass).

Data set [2] relates to CYP2D6. Also noted: method as in PMID 16714321. To be noted: irreversible inhibition of CYP2D6; cited from earlier work.
In data set [3] the test system is CYP2D6. Description: Effect of MDMA on CYP2D6-mediated MRZ metabolism (8-OH formation) in isolated perfused rat liver. To be noted: MDMA 3 mg/kg IP 1 hour before MRZ perfusion; inferred from 8-OH formation.
For another data set, the system named is CYP3A4. Description: Effect of MDMA on CYP3A4-mediated MRZ metabolism (NDES formation) in isolated perfused rat liver. Conditions: MDMA 3 mg/kg IP 1 hour before MRZ perfusion; inferred from NDES formation.
Where [4] appears, read: MDMA 3 mg/kg IP 1 hour before MRZ.
Where [5] appears, read: control group (n = 6), MRZ inlet 1 μg/ml.
The mark [6] stands for this setting: control group, individual rats 1-6, metabolite formed from MRZ 1 μg/ml.
Where [7] appears, read: treatment group (MDMA 3 mg/kg IP 1 hour before), individual rats 1-6.
The mark [8] stands for this setting: treatment group (MDMA 3 mg/kg IP 1 hour before), mean (n = 6).
[9] abbreviates: treatment group (n = 6), MDMA 3 mg/kg IP 1 hour before MRZ 1 μg/ml.
Setting [10] is: treatment group (n = 6), MDMA 3 mg/kg IP 1 hour before.

Values joined by “and” are separate entries in the source; they are usually repeats but may differ in a detail not shown here. Equal values may be shown once. Marks after values point to notes of the source that are not given here.

For `CN1CCN2c3ncc(O)cc3Cc3ccccc3C2C1` (stereo not drawn) [8-OH, 8-hydroxymirtazapine], in data set [1] (setting [4]), the “Decrease in AUC (0–120) of metabolite, treatment vs control” value worked out at 70%; the “Decrease in metabolite concentration, treatment vs control” value is 50%; the “Decrease in metabolic ratio, treatment vs control” value is 83%. In data set [1] (setting [5]), the “Mean outlet perfusate concentration at four latest samples” value (from here on “Mean outlet perfusate concentration”) came out at 10.3 ± 3.2 ng/mL. In data set [1] (control group (n = 6)), the “Metabolic ratio (metabolite concentration divided by MRZ concentration) at four latest sampling time intervals” value is 0.1 ± 0.05. Moreover, in data set [1] (setting [6]), the “AUC (0–120) 8-OH Control” value is 2124.9 ng·min/mL and 1398.9 ng·min/mL and 1960.2 ng·min/mL and 1674.1 ng·min/mL and 610.9 ng·min/mL and 588.2 ng·min/mL. In addition, the “AUC (0–120) 8-OH Control, MEAN” value in data set [1] (control group, mean (n = 6)) came to 1392.9 ng·min/mL. Besides, the “AUC (0–120) 8-OH Treatment” value in data set [1] (setting [7]) is 287.5 ng·min/mL and 398.6 ng·min/mL and 449.2 ng·min/mL and 415.4 ng·min/mL and 371.3 ng·min/mL and 920.5 ng·min/mL. In data set [1] (setting [8]), the “AUC (0–120) 8-OH Treatment, MEAN” value was 473.7* ng.min/ml. Besides, the “Mean outlet perfusate concentration” value in data set [1] (setting [9]) worked out at 4.7 ± 2.9 ng/mL. Also, the “Metabolic ratio (metabolite concentration divided by MRZ concentration) at four latest sampling time intervals” value in data set [1] (setting [10]) is on record as 0.02 ± 0.008.

For `CNC(C)Cc1ccc2c(c1)OCO2` (stereo not drawn) [MDMA, 3,4-methylenedioxymethamphetamine], the “Time after MDMA administration at which mechanism-based inhibition of most CYP2D6 isoenzymes is demonstrated” value in the data set with CYP2D6 [2] was no more than 1 h. For the same compound, the “Effect on CYP2D6 hepatic isoenzyme” value in the data set with CYP2D6 [3] is reported as “inhibitory effects”. Moreover, in the data set on CYP3A4, the “Effect on CYP3A4 hepatic isoenzyme” value was “inhibitory effects”.

In general, AUC(0-t) refers to exposure summed from dosing to a finite time, without extrapolation to infinity. With `CN1CCN2c3ncccc3Cc3ccccc3C2C1` (stereo not drawn) [MRZ, Mirtazapine, reference compound], the “Decrease in CLint, treatment vs control” value in data set [1] (setting [4]) is on record as 60%. Further, the “Increase in AUC (0–120) of parent drug, treatment vs control” value in data set [1] (setting [4]) turned out to be 50%. For the same compound, the “Mean outlet perfusate concentration” value was 131.9 ± 56.9 ng/mL in data set [1] (setting [5]) and 236.8 ± 44.7 ng/mL in data set [1] (setting [9]). In addition, the “CLh (hepatic clearance)” value is 7.2 ± 0.5 mL/min and 7.21 ± 0.47 mL/min in data set [1] (control group (n = 6), CLh=Q×E, Q 8.3 ml/min); 6.3 ± 0.4 mL/min and 6.33 ± 0.37 mL/min in data set [1] (setting [10]). Also, the “CLint (intrinsic clearance)” value in data set [1] (control group (n = 6), CLint=E×Q/F) is 63.4 ± 25.8 mL/min and 63.4 ± 25.81 mL/min; in data set [1] (setting [10]), 27.7 ± 6.3 mL/min and 27.71 ± 6.26 mL/min. In addition, in data set [1] (control group, individual rats 1-6), the “AUC (0–120) MRZ Control” value is 9928.7 ng.min/ml and 16,443.6 ng.min/ml and 10,611.4 ng.min/ml and 13,295.1 ng.min/ml and 19,497.1 ng.min/ml. The AUC(0-t) at 1 μg/ml in data set [1] (AUC (0–120) MRZ Control, MEAN, control group, mean (n = 6)) was 237 ng·h/mL; in data set [1] (AUC (0–120) MRZ Control, control group, individual rats 1-6), 259 ng·h/mL; in data set [1] (ip, 3 mg/kg, AUC (0–120) MRZ Treatment, MEAN, treatment group (MDMA 3 mg/kg IP 1 hour before), mean (n = 6)), 358 ng·h/mL; in data set [1] (ip, 3 mg/kg, AUC (0–120) MRZ Treatment, treatment group (MDMA 3 mg/kg IP 1 hour before), individual rats 1-6) it was 401 ng·h/mL. Moreover, the “AUC (0–120) MRZ Treatment” value in data set [1] (setting [7]) is 18,031.1 ng.min/ml and 17,675.6 ng.min/ml and 23,553.7 ng.min/ml and 23,063.4 ng.min/ml and 22,680.5 ng.min/ml.

Take `c1ccc2c(c1)Cc1cccnc1N1CCNCC21` (stereo not drawn) [NDES, N-desmethylmirtazapine]: in data set [1] (setting [4]), the “Decrease in AUC (0–120) of metabolite, treatment vs control” value is 60%; the “Decrease in metabolite concentration, treatment vs control” value is listed as 50%; the “Decrease in metabolic ratio, treatment vs control” value was found to be 79%. In data set [1] (setting [5]), the “Mean outlet perfusate concentration” value is 188.6 ± 63.44 ng/mL. The “Metabolic ratio (metabolite concentration divided by MRZ concentration) at four latest sampling time intervals” value in data set [1] (control group (n = 6)) was found to be 1.7 ± 0.8. In addition, the “AUC (0–120) NDES Control” value in data set [1] (setting [6]) was 28,525.2 ng.min/ml and 22,505.4 ng.min/ml and 15,171.6 ng.min/ml and 18,839.8 ng.min/ml and 11,195.2 ng.min/ml and 12,075.7 ng.min/ml. Further, the “AUC (0–120) NDES Control, MEAN” value in data set [1] (control group, mean (n = 6)) was 18,052.1 ng.min/ml. For the same compound, the “AUC (0–120) NDES Treatment” value in data set [1] (setting [7]) was 593.7 ng.min/ml and 12,111.8 ng.min/ml and 15,346.2 ng.min/ml and 5860.1 ng.min/ml and 10,613.3 ng.min/ml and 3605.2 ng.min/ml. Further, the “AUC (0–120) NDES Treatment, MEAN” value in data set [1] (setting [8]) is listed as 8021.7* ng.min/ml. In addition, the “Mean outlet perfusate concentration” value in data set [1] (setting [9]) turned out to be 98.5 ± 64.3 ng/mL. Moreover, the “Metabolic ratio (metabolite concentration divided by MRZ concentration) at four latest sampling time intervals” value in data set [1] (setting [10]) was found to be 0.45 ± 0.3.
